Data reported in patent publication EP2666869A1 (priority 2012, dated 2013).
Values joined by “and” are separate entries in the source; they are usually repeats but may differ in a detail not shown here. Equal values may be shown once. Read-outs that look alike come from different tables or passages of the source.

Legend:
[1] = Sorafenib pharmacokinetic analysis (plasma concentrations, Bayesian estimation of AUC and Cav); type: in vivo, human; settings: for AUC at 720 h: Cumulated sorafenib AUC, day 0 to day 30; for AUC tau at 720 h: day 30
Source text: (§1) Adverse events were reported and graded according to the National Cancer Institute Common Terminology Criteria (NCI-CTCAE) on days 15 and 30 after treatment initiation. Diarrhea and HFSR were graded according to the NCI-CTCAE 3.0 version, while hypertension was retrospectively graded according to the 4.0 version. In case of grade 4 hematological toxicity or grade 3 or 4 non-hematological toxicity, treatment was discontinued until side effects recovered to grade 1, or returned to baseline. Subsequent dose reductions were left at the discretion of the treating physician.
This Bayesian estimator is based on a 1-compartment model with saturated absorption, first-order intestinal loss and linear elimination.
For descriptive statistics, qualitative variables were expressed in numbers and percentages and quantitative ones in medians [inter-quartile intervals]. Glomerular filtration rate (GFR) and lean body mass (LBM) were estimated using the Modification of the Diet in Renal Disease (MDRD) formula and the Green's formula, respectively. […] Then, the relationships between the dose-standardized AUC and other variables were tested using two-sample Wilcoxon tests or Kruskal-Wallis tests for qualitative variables with two modalities or more than two modalities, respectively, and by Spearman rank correlation coefficient tests for quantitative ones. The following variables were tested: age, gender, ECOG status, weight, body mass index (BMI), LBM, primary tumor site, polymorphisms of CYP3A5 (rs776746), UGT1A9 (rsl78868320, rs6714486, rs72551330), ABCB1 (rs2231137, rs1045642), ABCG2 (rs2231137, rs2231142, rs2622604), alanine aminotransferase (ALT), aspartate aminotransferase (AST), alkaline phosphatase (ALP), gamma-glutamyl transpeptidase (GGT), bilirubin, albumin, C-Reactive Protein, creatinine and MDRD GFR. A stepwise multiple linear regression was then performed with variables significant with p < 0.10 in the first step included in the regression and variables significant with p < 0.05 kept in the final model. […] The cumulated AUC between day 0 and day 30 was calculated as the sum of two areas, (0-15 days) and (15-30 days) which were estimated using the trapezoidal rule. The area was multiplied by 24 to express the result in mg/L.h. […] On day 0, Cav0 was fixed at 0 mg/L.

[2] = Toxicity assessment (NCI-CTCAE grading) and risk factor analysis in the first month of sorafenib treatment; type: in vivo, human
Source text: as §1
For descriptive statistics, qualitative variables were expressed in numbers and percentages and quantitative ones in medians [inter-quartile intervals]. Glomerular filtration rate (GFR) and lean body mass (LBM) were estimated using the Modification of the Diet in Renal Disease (MDRD) formula and the Green's formula, respectively. […] Then, the relationships between the dose-standardized AUC and other variables were tested using two-sample Wilcoxon tests or Kruskal-Wallis tests for qualitative variables with two modalities or more than two modalities, respectively, and by Spearman rank correlation coefficient tests for quantitative ones. The following variables were tested: age, gender, ECOG status, weight, body mass index (BMI), LBM, primary tumor site, polymorphisms of CYP3A5 (rs776746), UGT1A9 (rsl78868320, rs6714486, rs72551330), ABCB1 (rs2231137, rs1045642), ABCG2 (rs2231137, rs2231142, rs2622604), alanine aminotransferase (ALT), aspartate aminotransferase (AST), alkaline phosphatase (ALP), gamma-glutamyl transpeptidase (GGT), bilirubin, albumin, C-Reactive Protein, creatinine and MDRD GFR. A stepwise multiple linear regression was then performed with variables significant with p < 0.10 in the first step included in the regression and variables significant with p < 0.05 kept in the final model. For the analysis of sorafenib-induced toxicities in the first month of treatment, we used dichotomous end points expressed as any toxicity ≥ grade 3 (yes or no), or grade ≥ 2 HFSR (yes or no), or grade ≥ 2 diarrhea (yes or no), or grade ≥ 2 hypertension (yes or no). The cumulated AUC between day 0 and day 30 was calculated as the sum of two areas, (0-15 days) and (15-30 days) which were estimated using the trapezoidal rule. The area was multiplied by 24 to express the result in mg/L.h. […] On day 0, Cav0 was fixed at 0 mg/L.
The univariate analysis of toxicity risk factors was carried out using two sample Wilcoxon tests for quantitative variables and Chi square or Fisher exact tests for qualitative ones. Fisher exact tests were performed as soon as at least one expected value was lower than 5. […] The multivariate analysis was performed by a stepwise logistic regression. Variables with p-values < 0.10 in the univariate analysis were included in the regression and variables with a Wald test p-value < 0.05 were kept in the final model. All the tests were two-sided, and they were considered significant when p-values were < 0.05. The receiver operating characteristic (ROC) curve was constructed to examine the value of an AUCcum threshold predicting a toxicity of grade ≥ 3 in the first month of treatment. The diagnostic accuracy values of sensitivity and specificity were determined, as well as the positive predictive value (PPV) and the negative predictive value (NPV). Computations were performed using the SAS V9 statistical package (SAS institute, Cary, NC).

[3] = AUCcum threshold value of 3,161 mg/L.h, toxicity of grade ≥ 3

CNC(=O)c1cc(Oc2ccc(NC(=O)Nc3ccc(Cl)c(C(F)(F)F)c3)cc2)ccn1 [sorafenib]
Spearman's coefficient (rho) ([1]; dose-normalized AUC day 15 versus Creatinine (µmol/L)): -0.26 | Spearman's coefficient (rho) ([1]; dose-normalized AUC day 15 versus LBM (kg)): -0.28 | AUC at 720 h ([1]; human, plasma, patients with Hand Foot Skin Reaction ≥ grade 2, median [interquartile range]): 3310 µg·h/mL | AUC at 720 h ([1]; human, plasma, patients with any toxicity ≥ grade 3, median [interquartile range]): 3500 µg·h/mL | AUC at 720 h ([1]; human, plasma, patients without Hand Foot Skin Reaction ≥ grade 2, median [interquartile range]): 2250 µg·h/mL | AUC at 720 h ([1]; human, plasma, patients without any toxicity ≥ grade 3, median [interquartile range]): 2250 µg·h/mL | AUC tau at 360 h ([1]; human, plasma, day 15, females, read-out: median absolute AUC): 78300 ng·h/mL | AUC tau at 360 h ([1]; human, plasma, day 15, males, read-out: median absolute AUC): 52400 ng·h/mL | AUC tau at 720 h ([1]; human, plasma, females, read-out: median absolute AUC): 82200 ng·h/mL | AUC tau at 720 h ([1]; human, plasma, males, read-out: median absolute AUC): 55200 ng·h/mL | AUC tau at 12 h ([1]; human, plasma, median absolute sorafenib AUC, day 15, all patients, AUC 0 to 12 hours, median [interquartile range]): 62000 ng·h/mL | AUC tau at 720 h ([1]; human, plasma, median absolute sorafenib AUC, all patients, median [interquartile range]): 61000 ng·h/mL | NPV [2, 3]: 63.3% | PPV [2, 3]: 75.8% | area under the ROC curve for the AUCcum threshold ([2]; CI 95%, 61-78%): 69% | Any toxicity ≥ grade 3: No ([2]; CYP3A5 6986 A>G AA (*1/*1)): 0 (0) n (%) | Any toxicity ≥ grade 3: Yes ([2]; CYP3A5 6986 A>G AA (*1/*1)): 4 (100) n (%) | Any toxicity ≥ grade 3: No ([2]; CYP3A5 6986 A>G AG (*1/*3)): 6 (67) n (%) | Any toxicity ≥ grade 3: Yes ([2]; CYP3A5 6986 A>G AG (*1/*3)): 3 (33) n (%) | Any toxicity ≥ grade 3: No ([2]; CYP3A5 6986 A>G GG (*3/*3)): 24 (63) n (%) | Any toxicity ≥ grade 3: Yes ([2]; CYP3A5 6986 A>G GG (*3/*3)): 14 (37) n (%) | Any toxicity ≥ grade 3: No ([2]; Female): 5 (33.3) n (%) | Any toxicity ≥ grade 3: Yes ([2]; Female): 10 (66.7) n (%) | Hand Foot Skin Reaction ≥ grade 2: No ([2]; Female): 5 (33.3) n (%) | Hand Foot Skin Reaction ≥ grade 2: Yes ([2]; Female): 10 (66.7) n (%) | Any toxicity ≥ grade 3: No ([2]; Male): 25 (67.6) n (%) | Any toxicity ≥ grade 3: Yes ([2]; Male): 12 (32.4) n (%) | Hand Foot Skin Reaction ≥ grade 2: No ([2]; Male): 25 (52.0) n (%) | Hand Foot Skin Reaction ≥ grade 2: Yes ([2]; Male): 12 (48.0) n (%) | Occurrence during first month of treatment: Diarrhea ([2]; No): 37 (69) n (%) | Occurrence during first month of treatment: Hypertension ([2]; No): 28 (52) n (%) | Occurrence during first month of treatment: Hand-foot skin reaction ([2]; No, 54 patients): 17 (31) n (%) | AUCcum threshold predicting a toxicity of grade ≥ 3 ([2]; ROC curve, first month of treatment): 3,161 mg/L.h | Diarrhea ≥ grade 2: No ([2]; UGT1A9 -275 T>A m/m): 0 (0) n (%) | Diarrhea ≥ grade 2: Yes ([2]; UGT1A9 -275 T>A m/m): 0 (0) n (%) | Diarrhea ≥ grade 2: No ([2]; UGT1A9 -275 T>A wt/m): 2 (50) n (%) | Diarrhea ≥ grade 2: Yes ([2]; UGT1A9 -275 T>A wt/m): 2 (50) n (%) | Diarrhea ≥ grade 2: No ([2]; UGT1A9 -275 T>A wt/wt): 43 (93) n (%) | Diarrhea ≥ grade 2: Yes ([2]; UGT1A9 -275 T>A wt/wt): 3 (7) n (%) | Diarrhea ≥ grade 2: No ([2]; UGT1A9 -2152 C>T m/m): 0 (0) n (%) | Diarrhea ≥ grade 2: Yes ([2]; UGT1A9 -2152 C>T m/m): 0 (0) n (%) | Diarrhea ≥ grade 2: No ([2]; UGT1A9 -2152 C>T wt/m): 2 (50) n (%) | Diarrhea ≥ grade 2: Yes ([2]; UGT1A9 -2152 C>T wt/m): 2 (50) n (%) | Diarrhea ≥ grade 2: No ([2]; UGT1A9 -2152 C>T wt/wt): 42 (93) n (%) | Diarrhea ≥ grade 2: Yes ([2]; UGT1A9 -2152 C>T wt/wt): 3 (7) n (%) | Occurrence during first month of treatment: Diarrhea ([2]; Yes): 17 (31) n (%) | Occurrence during first month of treatment: Hypertension ([2]; Yes): 25 (46) n (%) | Occurrence during first month of treatment: Hand-foot skin reaction ([2]; Yes, 54 patients): 37 (69) n (%) | Occurrence during first month of treatment: Diarrhea ([2]; grade < 2): 12 n (%) | Occurrence during first month of treatment: Hand-foot skin reaction ([2]; grade < 2): 15 n (%) | Occurrence during first month of treatment: Hypertension ([2]; grade < 2): 5 n (%) | Occurrence during first month of treatment: Diarrhea ([2]; grade ≥ 2 (grade 2-3)): 5 (9%) n (%) and 5 n (%) | Occurrence during first month of treatment: Hand-foot skin reaction ([2]; grade ≥ 2 (grade 2-3)): 22 (41%) n (%) and 22 n (%) | Occurrence during first month of treatment: Hypertension ([2]; grade ≥ 2 (grade 2-3)): 20 (38%) n (%) and 20 n (%) | grade 3 or 4 toxicity: diarrhea ([2]; on days 15 or 30, 5% of the 22 patients with grade 3 or 4 toxicity): 1 n | grade 3 or 4 toxicity: hypertension ([2]; on days 15 or 30, 27% of the 22 patients with grade 3 or 4 toxicity): 6 n | grade 3 or 4 toxicity: HFSR ([2]; on days 15 or 30, 68% of the 22 patients with grade 3 or 4 toxicity): 15 n | patients who experienced grade 3 or 4 toxicity ([2]; on days 15 or 30, twenty-two of 54 patients): 41% | patients who required dose reductions because of toxic effects ([2]; over the study period): 9 n | patients who required interruption of treatment because of toxic effects ([2]; over the study period): 10 n | patients who required dose reductions or interruption of treatment because of toxic effects ([2]; over the study period, nineteen patients): 35% | toxic death in relation with sorafenib ([2]; study period): no toxic death
